Values quoted from earlier work, collected in patent publication US20120289594A1, “ORAL DOSAGE FORM” (Orion Corporation, priority 2005, published 2012).

Legend:
[1] = background statement
[2] = background statement; remark: listed apart in the source

## CCN(CC)C(=O)/C(C#N)=C/c1cc(O)c(O)c([N+](=O)[O-])c1 [Entacapone, (E)-2-cyano-3-(3,4-dihydroxy-5-nitrophenyl)-N-diethyl-2 propenamide]
[1]
  water solubility: very low
[2]
  absorption in the gastrointestinal tract: quickly absorbed
